Assay results from patent publication US20230011571A1, “SMALL MOLECULE FURIN INHIBITORS FOR TREATING INFECTIOUS DISEASES” (BP Asset V, Inc., priority 2019, published 2023).

Columns and labels:
Format in all cases: cell-based
[1] = system: Chikungunya virus (CHIKV); assay: microbe, parasite or virus in culture; conditions: Chikungunya virus, Vero, 48 h, read-out: Percent viral inhibition CHKV
[2] = system: dengue virus (DENV); assay: microbe, parasite or virus in culture; conditions: Dengue virus, Vero, 120 h, read-out: Percent viral inhibition DENY
[3] = system: Marburg virus (MARV); assay: organism not typed; conditions: Vero, 72 h, read-out: Percent viral inhibition MARV

| Structure (SMILES) | inhibition at 1 µM [1] | inhibition at 1 µM [2] | inhibition at 1 µM [3] |
| --- | --- | --- | --- |
| C[C@@H](CC1CCN(Cc2cc(Oc3cnc(N4CCN(C)CC4)nc3)nc(-c3cc(Cl)cc(Cl)c3)c2)CC1)C(=O)O [Example 134, (S)-3-(1-((2-(3,5-dichlorophenyl)-6-((2-(4-methylpiperazin-1-yl)pyrimidin-5-yl)oxy)pyridin-4-yl)methyl)piperidin-4-yl)-2-methylpropanoic acid] | 0% | 43.2% | 45.1% |
| CN1CCN(c2ncc(Oc3cc(CN4CCC5(CC4)CN(C(=O)CO)C5)cc(-c4cc(Cl)cc(Cl)c4)n3)cn2)CC1 [Example 135, 1-(7-((2-(3,5-dichlorophenyl)-6-((2-(4-methylpiperazin-1-yl)pyrimidin-5-yl)oxy)pyridin-4-yl)methyl)-2,7-diazaspiro[3.5]nonan-2-yl)-2-hydroxyethanone] | 12.8% | 56.2% | 51.3% |
| CN1CCN(c2ccc(Oc3cc(CN4CC[C@@H]5[C@H](CC4)[C@H]5C(=O)O)cc(-c4cc(Cl)cc(Cl)c4)n3)cn2)CC1 [Example 136, (1R,7S,8r)-4-((2-(3,5-dichlorophenyl)-6-((6-(4-methylpiperazin-1-yl)pyridin-3-yl)oxy)pyridin-4-yl)methyl)-4-azabicyclo[5.1.0]octane-8-carboxylic acid] | 39.8% | 18% | 57.8% |
| CC(O)CC1CCN(Cc2cc(Oc3cnc(N4CCN(C)CC4)nc3)nc(-c3cc(Cl)cc(Cl)c3)c2)CC1 (stereo not drawn) [Example 138, 1-(1-((2-(3,5-dichlorophenyl)-6-((2-(4-methylpiperazin-1-yl)pyrimidin-5-yl)oxy)pyridin-4-yl)methyl)piperidin-4-yl)propan-2-ol] | 21.7% | 54.9% | 32.4% |
| CN1CCCN(c2ncc(Oc3cc(CN4CCC(OCC(=O)O)CC4)cc(-c4cc(Cl)cc(Cl)c4)n3)cn2)CC1 [Example 140, 2-((1-((2-(3,5-dichlorophenyl)-6-((2-(4-methyl-1,4-diazepan-1-yl)pyrimidin-5-yl)oxy)pyridin-4-yl)methyl)piperidin-4-yl)oxy)acetic acid] | 32.7% | 14.1% | 51.5% |
| CN1CCN(c2ccc(Oc3cc(CN4CCC5(CC4)CNC(=O)OC5)cc(-c4cc(Cl)cc(Cl)c4)n3)cn2)CC1 [Example 141, 9-((2-(3,5-dichlorophenyl)-6-((6-(4-methylpiperazin-1-yl)pyridin-3-yl)oxy)pyridin-4-yl)methyl)-2-oxa-4,9-diazaspiro[5.5]undecan-3-one] | 20.9% | 27.7% | 66.6% |
| CN1CCN(c2ncc(Oc3cc(CN4CCC(CC(N)=O)CC4)cc(-c4cc(Cl)cc(Cl)c4)n3)cn2)CC1 [Example 142, 2-(1-((2-(3,5-dichlorophenyl)-6-((2-(4-methylpiperazin-1-yl)pyrimidin-5-yl)oxy)pyridin-4-yl)methyl)piperidin-4-yl)acetamide] | 15.4% | 51.5% | 49.1% |
| CN1CCN(c2ncc(Oc3cc(CN4CCC(OC5(C(=O)O)CC5)CC4)cc(-c4cc(Cl)cc(Cl)c4)n3)cn2)CC1 [Example 143, 1-((1-((2-(3,5-dichlorophenyl)-6-((2-(4-methylpiperazin-1-yl)pyrimidin-5-yl)oxy)pyridin-4-yl)methyl)piperidin-4-yl)oxy)cyclopropanecarboxylic acid] | 34.4% | 34.5% | 40.5% |
| COC1CN(C)CCN(c2ncc(Oc3cc(CN4CCC(CC(=O)O)CC4)cc(-c4cc(Cl)cc(Cl)c4)n3)cn2)C1 (stereo not drawn) [Example 144, 2-(1-((2-(3,5-dichlorophenyl)-6-((2-(6-methoxy-4-methyl-1,4-diazepan-1-yl)pyrimidin-5-yl)oxy)pyridin-4-yl)methyl)piperidin-4-yl)acetic acid] | 32.6% | 35% | 56.6% |
| CN1CCN(c2ncc(Oc3cc(CN4CCC(CC(=O)O)CC4)cc(-c4cc(Cl)cc(Cl)c4)n3)cn2)CC(C)(O)C1 (stereo not drawn) [Example 146, 2-(1-((2-(3,5-dichlorophenyl)-6-((2-(6-hydroxy-4,6-dimethyl-1,4-diazepan-1-yl)pyrimidin-5-yl)oxy)pyridin-4-yl)methyl)piperidin-4-yl)acetic acid] | 23.1% | 41.8% | 66.2% |
| CN1CCN(c2ncc(Oc3cc(CN4CCC(CC(=O)O)CC4)cc(-c4cc(Cl)cc(Cl)c4)n3)cn2)CC(F)C1 (stereo not drawn) [Example 147, 2-(1-((2-(3,5-dichlorophenyl)-6-((2-(6-fluoro-4-methyl-1,4-diazepan-1-yl)pyrimidin-5-yl)oxy)pyridin-4-yl)methyl)piperidin-4-yl)acetic acid] | 31.7% | 42.8% | 44.2% |
| CNC1CCN(c2ncc(Oc3cc(CN4CCC(CC(=O)O)CC4)cc(-c4cc(Cl)cc(Cl)c4)n3)cn2)C1 (stereo not drawn) [Example 152, 2-(1-((2-(3,5-dichlorophenyl)-6-((2-(3-(methylamino)pyrrolidin-1-yl)pyrimidin-5-yl)oxy)pyridin-4-yl)methyl)piperidin-4-yl)acetic acid] | 16.3% | 19% | 44.1% |
| CN1CCN(c2ncc(Oc3cc(CN4CCO[C@H](CCO)CC4)cc(-c4cc(Cl)cc(Cl)c4)n3)cn2)CC1 [Example 153, (S)-2-(4-((2-(3,5-dichlorophenyl)-6-((2-(4-methylpiperazin-1-yl)pyrimidin-5-yl)oxy)pyridin-4-yl)methyl)-1,4-oxazepan-7-yl)ethanol] | 14.1% | 41.5% | 56.8% |
| CC(=O)CC1CCN(Cc2cc(Oc3cnc(N4CCN(C)CC4)nc3)nc(-c3cc(Cl)cc(Cl)c3)c2)CC1 [Example 155, 1-(1-((2-(3,5-dichlorophenyl)-6-((2-(4-methylpiperazin-1-yl)pyrimidin-5-yl)oxy)pyridin-4-yl)methyl)piperidin-4-yl)propan-2-one] | 14.5% | 8.98% | 42% |
| CN1CCCN(c2ccc(Oc3cc(CN4CCC(CC(=O)O)CC4)cc(-c4cc(Cl)cc(Cl)c4)n3)cn2)CC1 [Example 156, 2-(1-((2-(3,5-dichlorophenyl)-6-((6-(4-methyl-1,4-diazepan-1-yl)pyridin-3-yl)oxy)pyridin-4-yl)methyl)piperidin-4-yl)acetic acid] | 38.4% | 43.9% | 13.2% |
| CC(=O)NCC1CCN(Cc2cc(Oc3ccc(N4CCN(C)CC4)nn3)nc(-c3cc(Cl)cc(Cl)c3)c2)CC1 [Example 157, N-((1-((2-(3,5-dichlorophenyl)-6-((6-(4-methylpiperazin-1-yl)pyridazin-3-yl)oxy)pyridin-4-yl)methyl)piperidin-4-yl)methyl)acetamide] | 25.3% | 53.4% | 77.5% |
| NC1CCN(c2ncc(Oc3cc(CN4CCC(CC(=O)O)CC4)cc(-c4cc(Cl)cc(Cl)c4)n3)cn2)CC1 [Example 158, 2-(1-((2-((2-(4-aminopiperidin-1-yl)pyrimidin-5-yl)oxy)-6-(3,5-dichlorophenyl)pyridin-4-yl)methyl)piperidin-4-yl)acetic acid] | 2.85% | 19.3% | 18% |
| C[C@H]1CN(c2ncc(Oc3cc(CN4CCC(CC(=O)O)CC4)cc(-c4cc(Cl)cc(Cl)c4)n3)cn2)CCN1 [Example 159, (S)-2-(1-((2-(3,5-dichlorophenyl)-6-((2-(3-methylpiperazin-1-yl)pyrimidin-5-yl)oxy)pyridin-4-yl)methyl)piperidin-4-yl)acetic acid] | 22.9% | 17.5% | 49.8% |
| CC1(C)CN(c2ncc(Oc3cc(CN4CCC(CC(=O)O)CC4)cc(-c4cc(Cl)cc(Cl)c4)n3)cn2)CCN1 [Example 160, 2-(1-((2-(3,5-dichlorophenyl)-6-((2-(3,3-dimethylpiperazin-1-yl)pyrimidin-5-yl)oxy)pyridin-4-yl)methyl)piperidin-4-yl)acetic acid] | 21.7% | 49.5% | 35.1% |
| O=C(O)CC1CCN(Cc2cc(Oc3cnc(N4CC5CNCC5C4)nc3)nc(-c3cc(Cl)cc(Cl)c3)c2)CC1 (stereo not drawn) [Example 161, 2-(1-((2-(3,5-dichlorophenyl)-6-((2-(hexahydropyrrolo[3,4-c]pyrrol-2(1H)-yl)pyrimidin-5-yl)oxy)pyridin-4-yl)methyl)piperidin-4-yl)acetic acid] | 28.5% | 33% | 44.9% |
| O=C(O)CC1CCN(Cc2cc(Oc3cnc(N4CC5CC(C4)N5)nc3)nc(-c3cc(Cl)cc(Cl)c3)c2)CC1 [Example 162, 2-(1-((2-((2-(3,6-diazabicyclo[3.1.1]heptan-3-yl)pyrimidin-5-yl)oxy)-6-(3,5-dichlorophenyl)pyridin-4-yl)methyl)piperidin-4-yl) acetic acid] | 30.8% | 41.4% | 72.8% |
| O=C(O)CC1CCN(Cc2cc(Oc3cnc(N4CC5CCC(C4)N5)nc3)nc(-c3cc(Cl)cc(Cl)c3)c2)CC1 [Example 163, 2-(1-((2-((2-(3,8-diazabicyclo[3.2.1]octan-3-yl)pyrimidin-5-yl)oxy)-6-(3,5-dichlorophenyl)pyridin-4-yl)methyl)piperidin-4-yl)acetic acid] | 22% | 32.5% | 34.4% |
| O=C(O)CC1CCN(Cc2cc(Oc3cnc(N4CCNC5(CC5)C4)nc3)nc(-c3cc(Cl)cc(Cl)c3)c2)CC1 [Example 164, 2-(1-((2-((2-(4,7-diazaspiro[2.5]octan-7-yl)pyrimidin-5-yl)oxy)-6-(3,5-dichlorophenyl)pyridin-4-yl)methyl)piperidin-4-yl)acetic acid] | 34.6% | 45.5% | 36.1% |
